# Measured values published in patent US20150376225A1, “NOVEL COMPOUNDS OF 11BETA-HYDROXY-STEROIDS FOR USE IN MITOCHONDRIA BIOGENESIS AND DISEASES ASSOCIATED WITH MITOCHONDRIAL DYSFUNCTION OR DEPLETION” (SPHAERA PHARMA PVTD. LTD., priority 2013, published 2015).
# Tested on: AMPK
# Experiment: AMPK activation, cell based ELISA in Hep G2 cells
# Conditions: 1 h incubation, DMSO control as 100%
# Description: AMPK Activation Protocol:
# AMPK activation potential of the compounds was evaluated using cell based ELISA.
# Hepatoma (Hep G2) liver cells were maintained in a T 75 culture flask-containing 25 mM DMEM+10% fetal calf serum. The cells were maintained in a T 75 culture flask-containing medium (DMEM+10% fetal calf serum). On reaching a confluence of 70 to 80%, the cells were seeded in a 96 well plate at a density of 40,000 cells per well in 25 mM DMEM+10% FCS medium. The plates were then incubated at 37° C. with 5% CO2 for 24 hours. Various concentrations of drugs were prepared in DMSO and diluted to required concentration with the medium and incubated at 37° C. with 5% CO2 for 30 min and 1 h for Epicatechin analogs and 11-BHP analogs respectively. Metformin was used as positive control. Cells were fixed with 4% formaldehyde for 30 minutes at room temperature and washed three times with PBS containing 0.1% Triton X-100. Endogenous peroxidase was quenched with 1% H2O2 in PBS-T (0.1% Tween 20) for 30 minutes and washed three times in PBS-T. Cells were blocked with 1% BSA in PBS-T for 1 hour.
row,SMILES,% activation pAMPK at 1 nM [%]
1,"CC(=O)[C@H]1CCC2C3CC=C4C[C@@H](O)CC[C@]4(C)C3[C@@H](O)C[C@@]21C (stereo partly drawn) [Compound 1016, 1-((3S,10R,11S,13S,17S)-3,11-dihydroxy-10,13-dimethyl-2,3,4,7,8,9,10,11,12,13,14,15,16,17-tetradecahydro-1H-cyclopenta[a]phenanthren-17-yl)ethan-1-one]",104
2,"C[C@]12CC[C@H](O)CC1=CCC1C2[C@@H](O)C[C@@]2(C)C1CC[C@@H]2O (stereo partly drawn) [Compound 1017, (3S,10R,11S,13S,17S)-10,13-dimethyl-2,3,4,7,8,9,10,11,12,13,14,15,16,17-tetradecahydro-1H-cyclopenta[a]phenanthrene-3,11,17-triol]",97
3,"C[C@]12CCC(=O)C=C1CCC1C2[C@@H](O)C[C@@]2(C)C1CC[C@@H]2O (stereo partly drawn) [Compound 1018, (10R,11S,13S,17S)-11,17-dihydroxy-10,13-dimethyl-1,2,6,7,8,9,10,11,12,13,14,15,16,17-tetradecahydro-3H-cyclopenta[a]phenanthren-3-one]",106
4,"C[C@]12CCC(=O)C=C1CCC1C2[C@@H](O)C[C@]2(C)C(=O)CCC12 (stereo partly drawn) [Compound 1019, (10R,11S,13S)-11-hydroxy-10,13-dimethyl-1,6,7,8,9,10,11,12,13,14,15,16-dodecahydro-3H-cyclopenta[a]phenanthrene-3,17(2H)-dione]",103
5,"C[C@]12C[C@H](O)C3C(CCC4=CC(=O)CC[C@@]43C)C1CCC2C(=O)O (stereo partly drawn) [Compound 1020, (10R,11S,13S)-11-hydroxy-10,13-dimethyl-3-oxo-2,3,6,7,8,9,10,11,12,13,14,15,16,17-tetradecahydro-1H-cyclopenta[a]phenanthrene-17-carboxylic acid]",132
6,"CC(O)C1CCC2C3CC=C4CC5(CC[C@]4(C)C3[C@@H](O)C[C@]12C)OCCO5 (stereo partly drawn) [Compound 1021, (10R,11S,13S)-17-(1-hydroxyethyl)-10,13-dimethyl-1,2,4,7,8,9,10,11,12,13,14,15,16,17-tetradecahydrospiro[cyclopenta[a]phenanthrene-3,2′-[1,3]dioxolan]-11-ol]",129
7,"C[C@]12CC/C(=N/O)C=C1CCC1C2[C@@H](O)C[C@]2(C)/C(=N/O)CCC12 (stereo partly drawn) [Compound 1022, (3Z,10R,11S,13S,17E)-11-hydroxy-10,13-dimethyl-1,6,7,8,9,10,11,12,13,14,15,16-dodecahydro-3H-cyclopenta[a]phenanthrene-3,17(2H)-dione dioxime]",129
8,"C[C@]12CCC(=O)C=C1CCC1C2[C@@H](O)C[C@@]2(C)C1CC[C@]2(O)C(=O)O (stereo partly drawn) [Compound 1023, (10R,11S,13S,17R)-11,17-dihydroxy-10,13-dimethyl-3-oxo-2,3,6,7,8,9,10,11,12,13,14,15,16,17-tetradecahydro-1H-cyclopenta[a]phenanthrene-17-carboxylic acid]",127
9,"C[C@]12CCC(=O)C=C1CCC1C2[C@@H](O)C[C@]2(C)/C(=N/O)CCC12 (stereo partly drawn) [Compound 1024, (10R,11S,13S,E)-11-hydroxy-17-(hydroxyimino)-10,13-dimethyl-1,2,6,7,8,9,10,11,12,13,14,15,16,17-tetradecahydro-3H-cyclopenta[a]phenanthren-3-one]",133
10,"CC(=O)[C@H]1CCC2C3CCC4=CC(=O)CC[C@]4(C)C3[C@@H](O)C[C@@]21C (stereo partly drawn) [Compound 1025, (10R,11S,13S,17S)-17-acetyl-11-hydroxy-10,13-dimethyl-1,2,6,7,8,9,10,11,12,13,14,15,16,17-tetradecahydro-3H-cyclopenta[a]phenanthren-3-one]",118
11,"C[C@]12CCC(=O)C=C1CCC1C2[C@@H](O)C[C@@]2(C)C1CC[C@@]21OCC1=O (stereo partly drawn) [Compound 1028, (10R,11S,13S,17R)-11-hydroxy-10,13-dimethyl-1,6,7,8,9,10,11,12,13,14,15,16-dodecahydrospiro[cyclopenta[a]phenanthrene-17,2′-oxetane]-3,3′(2H)-dione]",103
12,"CC(=O)C1CCC2C3CC=C4CC5(CC[C@]4(C)C3[C@@H](O)C[C@]12C)OCCO5 (stereo partly drawn) [Compound 1029, 1-((10R,11S,13S)-11-hydroxy-10,13-dimethyl-1,2,4,7,8,9,10,11,12,13,14,15,16,17-tetradecahydrospiro[cyclopenta[a]phenan-threne-3,2′-[1,3]dioxolan]-17-yl)ethan-1-one]",105
13,"CN(C)C(=O)C1CCC2C3CCC4=CC(=O)CC[C@]4(C)C3[C@@H](O)C[C@]12C (stereo partly drawn) [Compound 1030, (10R,11S,13S)-11-hydroxy-N,N,10,13-tetramethyl-3-oxo-2,3,6,7,8,9,10,11,12,13,14,15,16,17-tetradecahydro-1H-cyclopenta[a]phenanthrene-17-carboxamide]",105
14,"C/C(=N/O)[C@H]1CCC2C3CCC4=C/C(=N\O)CC[C@]4(C)C3[C@@H](O)C[C@@]21C (stereo partly drawn) [Compound 1031, (10R,11S,13S,17S,Z)-11-hydroxy-17-((Z)-1-(hydroxyimino)ethyl)-10,13-dimethyl-1,2,6,7,8,9,10,11,12,13,14,15,16,17-tetradecahydro-3H-cyclopenta[a]phenanthren-3-one oxime]",109
15,"CN(C)C(=O)C1CCC2C3CCC4CC(=O)CC[C@]4(C)C3[C@@H](O)C[C@]12C (stereo partly drawn) [Compound 1033, (10S,11S,13S)-11-hydroxy-N,N,10,13-tetramethyl-3-oxohexadecahydro-1H-cyclopenta[a]phenanthrene-17-carboxamide]",107
16,"C[C@]12CCC(=O)CC1CCC1C2[C@@H](O)C[C@]2(C)C(=O)CCC12 (stereo partly drawn) [Compound 1034, (10S,11S,13S)-11-hydroxy-10,13-dimethyltetradecahydro-3H-cyclopenta[a]phenanthrene-3,17(2H)-dione]",104
17,"CC(=O)[C@H]1CCC2C3CCC4=CC(=O)CC[C@]4(C)C3[C@@](C)(O)C[C@@]21C (stereo partly drawn) [Compound 1035, (10R,11S,13S,17S)-17-acetyl-11-hydroxy-10,11,13-trimethyl-1,2,6,7,8,9,10,11,12,13,14,15,16,17-tetradecahydro-3H-cyclopenta[a]phenanthren-3-one]",102
18,"CC(O)C1CCC2C3CC=C4C[C@@H](O)CC[C@]4(C)C3[C@@H](O)C[C@]12C (stereo partly drawn) [Compound 1036, (3S,10R,11S,13S)-17-(1-hydroxyethyl)-10,13-dimethyl-2,3,4,7,8,9,10,11,12,13,14,15,16,17-tetradecahydro-1H-cyclopenta[a]phenanthrene-3,11-diol]",102
19,"CC(O)[C@H]1CC[C@H]2[C@@H]3CCC4=C[C@@H](O)CC[C@]4(C)[C@H]3[C@@H](O)C[C@]12C (stereo partly drawn) [Compound 1037, (3S,8S,9S,10R,11S,13S,14S,17S)-17-(1-hydroxyethyl)-10,13-dimethyl-2,3,6,7,8,9,10,11,12,13,14,15,16,17-tetradecahydro-1H-cyclopenta[a]phenanthrene-3,11-diol]",95
20,"CO[C@H]1CC[C@@]2(C)C(=CCC3C2[C@@H](O)C[C@@]2(C)C3CC[C@@H]2C(C)=O)C1 (stereo partly drawn) [Compound 1038, 1-((3S,10R,11S,13S,17S)-11-hydroxy-3-methoxy-10,13-dimethyl-2,3,4,7,8,9,10,11,12,13,14,15,16,17-tetradecahydro-1H-cyclopenta[a]phenanthren-17-yl)ethan-1-one]",103
21,"CC(O)C1CCC2C3CCC4CC5(CC[C@]4(C)C3[C@@H](O)C[C@]12C)OCCO5 (stereo partly drawn) [Compound 1039, (10S,11S,13S)-17-(1-hydroxyethyl)-10,13-dimethylhexadecahydrospiro[cyclopenta[a]phenanthrene-3,2′-[1,3]dioxolan]-11-ol]",100
22,"CC(O)[C@H]1CCC2C3CCC4C[C@@H](O)CC[C@]4(C)C3[C@@H](O)C[C@@]21C (stereo partly drawn) [Compound 1040, (3S,10S,11S,13S,17S)-17-(1-hydroxyethyl)-10,13-dimethylhexadecahydro-1H-cyclopenta[a]phenanthrene-3,11-diol]",95
23,"CC[C@H]1CCC2C3CC=C4C[C@@H](O)CC[C@]4(C)C3[C@@H](O)C[C@@]21C (stereo partly drawn) [Compound 1041, (3S,10R,11S,13R,17S)-17-ethyl-10,13-dimethyl-2,3,4,7,8,9,10,11,12,13,14,15,16,17-tetradecahydro-1H-cyclopenta[a]phenanthrene-3,11-diol]",95
24,"CC(=O)[C@H]1CCC2C3CCC4C[C@@H](O)CC[C@]4(C)C3[C@@H](O)C[C@@]21C (stereo partly drawn) [Compound 1042, 1-((3S,10S,11S,13S,17S)-3,11-dihydroxy-10,13-dimethylhexadecahydro-1H-cyclopenta[a]phenanthren-17-yl)ethan-1-one]",96
25,"[2H][C@]1(O)CC[C@@]2(C)C(=CCC3C2[C@@H](O)C[C@@]2(C)C3CC[C@@H]2C(C)=O)C1 (stereo partly drawn) [Compound 1045, 1-((3S,10R,11S,13S,17S)-3,11-dihydroxy-10,13-dimethyl-2,3,4,7,8,9,10,11,12,13,14,15,16,17-tetradecahydro-1H-cyclopenta[a]phenanthren-17-yl-3-d)ethan-1-one]",116
